Experimental data as given in ChEMBL document CHEMBL5634162, “Cyclohexylalanine-Containing α-Helical Amphipathic Peptide Targets Cardiolipin, Rescuing Mitochondrial Dysfunction in Kidney Injury” (J Med Chem, 2024).
Where a SMILES comes first, the peptide text is derived from it. Bridges are numbered along the chain shown (N, C = ends). Roman numbers before positions name the chains, in order. [ ]: non-standard residue; d: D form. The star is where a group is joined. 5TAMRA = CN(C)c1ccc2c(c1)Oc1cc(N(C)C)ccc1C21OC(=O)c2cc(C(=O)*)ccc21; Cha = N[C@@H](CC1CCCCC1)C(=O)O

assay: Drug localization in mitochondria of human HeLa cells at EC50 incubated for 3 hrs by fluorescence based assay; format: ADME

Structure (SMILES)	Drug uptake
CC(=O)N[C@@H](CC(C)C)C(=O)N[C@H]1CSSC[C@@H](C(=O)N[C@@H](CCCNC(=N)N)C(N)=O)NC(=O)[C@H](CC2CCCCC2)NC(=O)[C@H](CCCNC(=N)N)NC(=O)[C@H](CCCNC(=N)N)NC(=O)[C@H](CC(C)C)NC(=O)[C@H](CC(C)C)NC(=O)[C@H](CCCNC(=N)N)NC(=O)[C@@H](NC(=O)[C@H](CC(C)C)NC(=O)c2ccc3c(c2)C(=O)OC32c3ccc(N(C)C)cc3Oc3cc(N(C)C)ccc32)CSSC[C@@H](C(=O)N[C@@H](CCCNC(=N)N)C(N)=O)NC(=O)[C@H](CC2CCCCC2)NC(=O)[C@H](CCCNC(=N)N)NC(=O)[C@H](CCCNC(=N)N)NC(=O)[C@H](CC(C)C)NC(=O)[C@H](CC(C)C)NC(=O)[C@H](CCCNC(=N)N)NC1=O (I: Ac-LCRLLRR[Cha]CR-NH2 / II: 5TAMRA-LCRLLRR[Cha]CR-NH2; disulfide I:2-II:9, I:9-II:2)	53%
CC(=O)N[C@@H](CC(C)C)C(=O)N[C@H]1CSSC[C@@H](C(=O)N[C@@H](CCCNC(=N)N)C(N)=O)NC(=O)[C@H](CC(C)C)NC(=O)[C@H](CCCNC(=N)N)NC(=O)[C@H](CCCNC(=N)N)NC(=O)[C@H](CC2CCCCC2)NC(=O)[C@H](CC(C)C)NC(=O)[C@H](CCCNC(=N)N)NC(=O)[C@@H](NC(=O)[C@H](CC(C)C)NC(=O)c2ccc3c(c2)C(=O)OC32c3ccc(N(C)C)cc3Oc3cc(N(C)C)ccc32)CSSC[C@@H](C(=O)N[C@@H](CCCNC(=N)N)C(N)=O)NC(=O)[C@H](CC(C)C)NC(=O)[C@H](CCCNC(=N)N)NC(=O)[C@H](CCCNC(=N)N)NC(=O)[C@H](CC2CCCCC2)NC(=O)[C@H](CC(C)C)NC(=O)[C@H](CCCNC(=N)N)NC1=O (I: Ac-LCRL[Cha]RRLCR-NH2 / II: 5TAMRA-LCRL[Cha]RRLCR-NH2; disulfide I:2-II:9, I:9-II:2)	53%
CC(=O)N[C@@H](CC(C)C)C(=O)N[C@H]1CSSC[C@@H](C(=O)N[C@@H](CCCNC(=N)N)C(N)=O)NC(=O)[C@H](CC2CCCCC2)NC(=O)[C@H](CCCNC(=N)N)NC(=O)[C@H](CCCNC(=N)N)NC(=O)[C@H](CC2CCCCC2)NC(=O)[C@H](CC(C)C)NC(=O)[C@H](CCCNC(=N)N)NC(=O)[C@@H](NC(=O)[C@H](CC(C)C)NC(=O)c2ccc3c(c2)C(=O)OC32c3ccc(N(C)C)cc3Oc3cc(N(C)C)ccc32)CSSC[C@@H](C(=O)N[C@@H](CCCNC(=N)N)C(N)=O)NC(=O)[C@H](CC2CCCCC2)NC(=O)[C@H](CCCNC(=N)N)NC(=O)[C@H](CCCNC(=N)N)NC(=O)[C@H](CC2CCCCC2)NC(=O)[C@H](CC(C)C)NC(=O)[C@H](CCCNC(=N)N)NC1=O (I: Ac-LCRL[Cha]RR[Cha]CR-NH2 / II: 5TAMRA-LCRL[Cha]RR[Cha]CR-NH2; disulfide I:2-II:9, I:9-II:2)	53%
CC(=O)N[C@@H](CC(C)C)C(=O)N[C@H]1CSSC[C@@H](C(=O)N[C@@H](CCCNC(=N)N)C(N)=O)NC(=O)[C@H](CC(C)C)NC(=O)[C@H](CCCNC(=N)N)NC(=O)[C@H](CCCNC(=N)N)NC(=O)[C@H](CC(C)C)NC(=O)[C@H](CC2CCCCC2)NC(=O)[C@H](CCCNC(=N)N)NC(=O)[C@@H](NC(=O)[C@H](CC(C)C)NC(=O)c2ccc3c(c2)C(=O)OC32c3ccc(N(C)C)cc3Oc3cc(N(C)C)ccc32)CSSC[C@@H](C(=O)N[C@@H](CCCNC(=N)N)C(N)=O)NC(=O)[C@H](CC(C)C)NC(=O)[C@H](CCCNC(=N)N)NC(=O)[C@H](CCCNC(=N)N)NC(=O)[C@H](CC(C)C)NC(=O)[C@H](CC2CCCCC2)NC(=O)[C@H](CCCNC(=N)N)NC1=O (I: Ac-LCR[Cha]LRRLCR-NH2 / II: 5TAMRA-LCR[Cha]LRRLCR-NH2; disulfide I:2-II:9, I:9-II:2)	53%
CC(=O)N[C@@H](CC(C)C)C(=O)N[C@H]1CSSC[C@@H](C(=O)N[C@@H](CCCNC(=N)N)C(N)=O)NC(=O)[C@H](CC2CCCCC2)NC(=O)[C@H](CCCNC(=N)N)NC(=O)[C@H](CCCNC(=N)N)NC(=O)[C@H](CC(C)C)NC(=O)[C@H](CC2CCCCC2)NC(=O)[C@H](CCCNC(=N)N)NC(=O)[C@@H](NC(=O)[C@H](CC(C)C)NC(=O)c2ccc3c(c2)C(=O)OC32c3ccc(N(C)C)cc3Oc3cc(N(C)C)ccc32)CSSC[C@@H](C(=O)N[C@@H](CCCNC(=N)N)C(N)=O)NC(=O)[C@H](CC2CCCCC2)NC(=O)[C@H](CCCNC(=N)N)NC(=O)[C@H](CCCNC(=N)N)NC(=O)[C@H](CC(C)C)NC(=O)[C@H](CC2CCCCC2)NC(=O)[C@H](CCCNC(=N)N)NC1=O (I: Ac-LCR[Cha]LRR[Cha]CR-NH2 / II: 5TAMRA-LCR[Cha]LRR[Cha]CR-NH2; disulfide I:2-II:9, I:9-II:2)	53%
CC(=O)N[C@@H](CC(C)C)C(=O)N[C@H]1CSSC[C@@H](C(=O)N[C@@H](CCCNC(=N)N)C(N)=O)NC(=O)[C@H](CC(C)C)NC(=O)[C@H](CCCNC(=N)N)NC(=O)[C@H](CCCNC(=N)N)NC(=O)[C@H](CC2CCCCC2)NC(=O)[C@H](CC2CCCCC2)NC(=O)[C@H](CCCNC(=N)N)NC(=O)[C@@H](NC(=O)[C@H](CC(C)C)NC(=O)c2ccc3c(c2)C(=O)OC32c3ccc(N(C)C)cc3Oc3cc(N(C)C)ccc32)CSSC[C@@H](C(=O)N[C@@H](CCCNC(=N)N)C(N)=O)NC(=O)[C@H](CC(C)C)NC(=O)[C@H](CCCNC(=N)N)NC(=O)[C@H](CCCNC(=N)N)NC(=O)[C@H](CC2CCCCC2)NC(=O)[C@H](CC2CCCCC2)NC(=O)[C@H](CCCNC(=N)N)NC1=O (I: Ac-LCR[Cha][Cha]RRLCR-NH2 / II: 5TAMRA-LCR[Cha][Cha]RRLCR-NH2; disulfide I:2-II:9, I:9-II:2)	53%
CC(=O)N[C@@H](CC(C)C)C(=O)N[C@H]1CSSC[C@@H](C(=O)N[C@@H](CCCNC(=N)N)C(N)=O)NC(=O)[C@H](CC2CCCCC2)NC(=O)[C@H](CCCNC(=N)N)NC(=O)[C@H](CCCNC(=N)N)NC(=O)[C@H](CC2CCCCC2)NC(=O)[C@H](CC2CCCCC2)NC(=O)[C@H](CCCNC(=N)N)NC(=O)[C@@H](NC(=O)[C@H](CC(C)C)NC(=O)c2ccc3c(c2)C(=O)OC32c3ccc(N(C)C)cc3Oc3cc(N(C)C)ccc32)CSSC[C@@H](C(=O)N[C@@H](CCCNC(=N)N)C(N)=O)NC(=O)[C@H](CC2CCCCC2)NC(=O)[C@H](CCCNC(=N)N)NC(=O)[C@H](CCCNC(=N)N)NC(=O)[C@H](CC2CCCCC2)NC(=O)[C@H](CC2CCCCC2)NC(=O)[C@H](CCCNC(=N)N)NC1=O (I: Ac-LCR[Cha][Cha]RR[Cha]CR-NH2 / II: 5TAMRA-LCR[Cha][Cha]RR[Cha]CR-NH2; disulfide I:2-II:9, I:9-II:2)	53%
CC(=O)N[C@@H](CC1CCCCC1)C(=O)N[C@H]1CSSC[C@@H](C(=O)N[C@@H](CCCNC(=N)N)C(N)=O)NC(=O)[C@H](CC(C)C)NC(=O)[C@H](CCCNC(=N)N)NC(=O)[C@H](CCCNC(=N)N)NC(=O)[C@H](CC(C)C)NC(=O)[C@H](CC(C)C)NC(=O)[C@H](CCCNC(=N)N)NC(=O)[C@@H](NC(=O)[C@H](CC2CCCCC2)NC(=O)c2ccc3c(c2)C(=O)OC32c3ccc(N(C)C)cc3Oc3cc(N(C)C)ccc32)CSSC[C@@H](C(=O)N[C@@H](CCCNC(=N)N)C(N)=O)NC(=O)[C@H](CC(C)C)NC(=O)[C@H](CCCNC(=N)N)NC(=O)[C@H](CCCNC(=N)N)NC(=O)[C@H](CC(C)C)NC(=O)[C@H](CC(C)C)NC(=O)[C@H](CCCNC(=N)N)NC1=O (I: Ac-[Cha]CRLLRRLCR-NH2 / II: 5TAMRA-[Cha]CRLLRRLCR-NH2; disulfide I:2-II:9, I:9-II:2)	53%
